The subject of series [1] is primarily cultured rat hepatocytes.
Procedure: (§1) Wistar male rats (weight: 200 to 205 g) were used, and hepatocytes were isolated by the in situ collagenase perfusion technique according to the method of Seglen et al. (Methods. Cell Biol., 13, pp. 29-83, 1975). The isolated hepatocytes were suspended in the Williams' medium E (containing 0.1 μg/mL aprotinin, 100 U/mL of penicillin G, 0.1 mg/mL of streptomycin, and 0.1 nmol/L of dexamethasone) containing 5% bovine neonate serum 3 times for washing, and then inoculated on a collagen coated culture dish (35 mm Φ) at a cell density of 3.3×10^4 cells/cm^2. The cells were adhered to the culture dish by culturing them at 37° C. for 3 hours in the presence of 5% CO2 to prepare a primarily cultured hepatocyte cell line. Survival rate of the isolated hepatocytes was obtained by the trypan blue exclusion method, and those showing a survival rate not lower than 93% were used for the following experiments.
(§2) Four hours after the addition of the agents, number of nuclei was measured as follows. The hepatocytes were washed with PBS, and then added with 0.25 mL of a 0.1 mol/L citric acid solution containing 0.1% Triton X-100. The cells were incubated at 37° C. for 30 minutes to solubilize the cell membranes and thereby obtain naked nuclei. The same volume of a PBS solution containing 0.3% trypan blue was further added, and number of the stained nuclei was measured with a hemacytometer.
Series [2] shares this test system. In words: Influence on cell density-dependent proliferation of primarily cultured rat hepatocytes. Type of series: cell-based. To be noted: cell densities 1-10×10^4 cells/cm^2; NIK-333 10^−9, trans 10^−7, GGP 10^−6 mol/L; four hours; FIG. 2. The source says: Hepatocytes isolated by the same method as that of Example 1 were inoculated at cell densities of 1, 2, 3.3, 5, 7, and 10×10^4 cells/cm^2. NIK-333 (10^−9 mol/L), trans (10^−7 mol/L), cis (10^−6 mol/L), GG (10^−7 mol/L), and GGP (10^−6 mol/L) were each added to the hepatocytes pre-cultured in the same manner as that of Example 1.

In series [3] the test system is mouse liver carcinogenic model. To be noted: reported; cited from earlier work.
Series [4] deals with primarily cultured mouse hepatocytes. To be noted: cited from earlier work.
For series [5], the system named is primarily cultured rat hepatocytes. The series can be described thus: Effect of promoting proliferation of primarily cultured rat hepatocytes (number of nuclei). To be noted: FIG. 1; for effect of promoting proliferation of primarily cultured rat hepatocytes (number of nuclei): 10^−11 to 10^−7 (and 10^−8 as printed) mol/L, four hours after addition, 3.3×10^4 cells/cm^2, vs solvent control.
Procedure: as §1, §2

For series [6], the system named is 70% partially hepatectomized rat (PH rat). In words: Liver regeneration in 70% partially hepatectomized rat (PH rat). Type of series: in vivo. The settings on record: 0.4 mg/kg/day p.o. Here is the method: Hepatocyte proliferation promoting effect of NIK-333 was examined by using a 70% partially hepatectomized rat (partial hepatectomy: PH rat) as an in vivo experiment system.
Wistar male rats (weight: 130 to 170 g) were subjected to 70% partial hepatectomy according to the method of Higgins G. M. et al. (Arch. Pathol., 12, pp. 186-202, 1931) to prepare PH rats. NIK-333 (solvent was soybean oil, 0.4 mg/kg/day) was orally administered to these PH rats once per day, the administration was repeated and continued for 1 to 14 days, and reaction was observed over time. The model animals fed for 1 to 14 days after the hepatectomy were subjected to abdominal section under diethyl ether anesthesia, and the remaining livers were extracted. The remaining livers were separated into normal hepatic tissues and necrotizing hepatic tissues (liver tissues which were not excisable by the partial hepatectomy and remained), and weight of each was measured (wet weight). The examination was performed for three animals for each group, and the results are indicated as average±standard error. Student t-test was performed between a solvent administered group (soybean oil, 4 mL/kg, p.o.) as a control group and the NIK-333 administered group. The significance level of the test was set at 5% and 1% on both sides.

Series [7] relates to rat partially hepatectomized model. The settings on record: rat partially hepatectomized model (Non-patent document 9); cited from earlier work.
Another series concerns hepatoma. The settings on record: long-term administration over one year (Non-patent document 6); cited from earlier work.
Series [8] concerns cell lines derived from human hepatoma (HuH-7, JHH-7, HLF, Hep G2). The series can be described thus: Influence on proliferation of cell lines derived from human hepatoma (WST-1 live cell count). Type of series: cell-based. The settings on record: 10^−11 to 10^−7 mol/L, cultured overnight, FIG. 3. The method, then:
The cells were inoculated on a 96-well plate at a cell density of 1×10^4 cells/mL, and cultured overnight at 37° C. in the presence of 5% CO2. […] The cells were cultured overnight at 37° C. in the presence of 5% CO2, and live cell count was measured. The live cell count was measured by using Cell Counting Kit (Wako Pure Chemical Industries). […] Absorbance was measured for each well at a measurement wavelength of 450 nm and a reference wavelength of 655 nm using a microplate reader.
On the technique in general: Tetrazolium dyes change colour on reduction, which living cells bring about.

Like-named read-outs stand apart in the source and are kept apart here.

Turning to `CC1=C(/C=C/C(C)=C/C=C/C(C)=C/C(=O)O)C(C)(C)CCC1` [trans, all-trans-retinoic acid], the “effect of promoting proliferation of primarily cultured rat hepatocytes (number of nuclei)” value (from here on “effect … (number of nuclei)”) in series [1] is listed as “significant effect of promoting proliferation”. The “cell proliferation promoting action with increasing cell density” value in series [2] is listed as “gave the cell proliferation promoting action even when the cell density was increased”. Moreover, the “oncogenesis in mouse liver carcinogenic model” value in [3] was “promote oncogenesis”. Besides, in series [4] (reported, no concentration given), the “proliferation of mouse hepatocytes” value is recorded as “induce the proliferation of mouse hepatocytes”.
As to `CC(C)=CCC/C(C)=C/CC/C(C)=C/CC/C(C)=C/COP(=O)(O)OP(=O)(O)O.N.N.N` [GGP, geranylgeranyl pyrophosphate ammonium salt, reference compound], in series [5], the “effect … (number of nuclei)” value is “significant effect of promoting proliferation”. Further, in series [2], the “cell proliferation promoting action with increasing cell density” value is on record as “decreased with the increase of the cell density”.
Consider `CC(C)=CCC/C(C)=C/CC/C(C)=C/C=C/C(C)=C/C(=O)O` [NIK-333, (2E,4E,6E,10E)-3,7,11,15-tetramethyl-2,4,6,10,14-hexadecapentaenoic acid], for which the “recovery of liver weight compared with the control group” value in [6] (1 to 14 days) is given as “earlier recovery of liver weight”. In addition, in [6] (14th day after PH), the “hyperproliferation exceeding the value of the Sham group” value is “not observed”. In series [6] (3 days after PH), the “increase rate of liver weight” value is 85%. Also, the liver weight in series [6] (3 days after PH, g liver weight/100 g body weight) is listed as 3.0 g LW/BW. In series [5], the “effect … (number of nuclei)” value was “significant effect of promoting proliferation”. For the same molecule, in [5] (comparison of NIK-333, trans, cis, GG, GGP), the “relative strength of the proliferation promoting effect among the tested agents” value is “strongest effect”. Moreover, the “cell proliferation promoting action with increasing cell density” value in series [2] is given as “decreased with the increase of the cell density”. The “DNA synthesis of regenerated liver” value in series [7] was “delays DNA synthesis”. Besides, the “recurrence of hepatoma after radical cure” value with hepatoma was “significantly suppressed”. The “effect on proliferation of primarily cultured mouse hepatocytes” value in [4] (at a concentration inducing apoptosis of hepatoma cells (Non-patent documents 7 and 8)) is given as “does not affect proliferation”. Moreover, in series [8], the “proliferation promotion action for human hepatoma cell strains (live cell count)” value is “no proliferation promotion action”.

Source of the values: US8455546B2, “Medicament having promoting action on hepatocyte proliferation” (Josai University Educational Corporation, priority 2007, dated 2013).
